Assay results: patent publication US9775871B2, “Herbal compositions and methods for treating hepatic disorders” (priority 2007, dated 2017)

System: primary cultures of rat hepatocytes
Assay: Production of free radicals (DCFH-DA fluorescence) after t-BOOH exposure

O=c1c(O)c(-c2ccc(O)c(O)c2)oc2cc(O)cc(O)c12 [Quercetin, quercetin]
Free radicals (%) (5 μM, Table 1, ratio of t-BOOH positive control, positive control of the test): 51.5 ± 2.1% | Free radicals (%) (25 μM, Table 1, ratio of t-BOOH positive control, positive control of the test): 18.8 ± 1.2% | Free radicals (%) (25 μM, Table 2, ratio of t-BOOH control (100), median ± SE): 13.2 ± 5.6 %
